Measurements published in patent US9145392B2, “Imidazole amines as modulators of kinase activity” (Merck Patent GmbH, priority 2011, dated 2015).

Key:
P70S6K (T412E mutant) = P70S6K (T412E mutant) (Homo sapiens (Human), UniProt P23443, T412E); experiment: P70S6K enzyme assay; type: biochemical; settings: read-out: IC50 p70S6K
Summary of the method: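 Read-out is the substrate/phosphopeptide ratio from mobility-shift electrophoresis on a LabChip 3000.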

His-AKT (Full Length) = His-AKT (Full Length) (Homo sapiens (Human), UniProt P31749); experiment: AKT enzyme assay; type: biochemical; settings: read-out: IC50 AKT
Chain of His-AKT (Full Length) (P31749 whole entry): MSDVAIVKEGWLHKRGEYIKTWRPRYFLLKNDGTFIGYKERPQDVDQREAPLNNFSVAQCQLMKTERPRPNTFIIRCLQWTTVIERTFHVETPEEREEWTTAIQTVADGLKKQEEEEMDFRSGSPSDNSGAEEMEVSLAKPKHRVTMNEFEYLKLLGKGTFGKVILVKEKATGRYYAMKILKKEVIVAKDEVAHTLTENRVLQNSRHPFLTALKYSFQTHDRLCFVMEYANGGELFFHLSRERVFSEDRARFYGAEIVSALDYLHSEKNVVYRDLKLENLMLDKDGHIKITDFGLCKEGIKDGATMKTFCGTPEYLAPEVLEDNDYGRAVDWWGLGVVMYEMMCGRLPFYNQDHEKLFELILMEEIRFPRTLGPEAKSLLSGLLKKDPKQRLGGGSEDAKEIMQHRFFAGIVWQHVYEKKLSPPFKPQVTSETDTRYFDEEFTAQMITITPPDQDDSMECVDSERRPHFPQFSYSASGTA

Chain of P70S6K (T412E mutant) (P23443 whole entry T412E): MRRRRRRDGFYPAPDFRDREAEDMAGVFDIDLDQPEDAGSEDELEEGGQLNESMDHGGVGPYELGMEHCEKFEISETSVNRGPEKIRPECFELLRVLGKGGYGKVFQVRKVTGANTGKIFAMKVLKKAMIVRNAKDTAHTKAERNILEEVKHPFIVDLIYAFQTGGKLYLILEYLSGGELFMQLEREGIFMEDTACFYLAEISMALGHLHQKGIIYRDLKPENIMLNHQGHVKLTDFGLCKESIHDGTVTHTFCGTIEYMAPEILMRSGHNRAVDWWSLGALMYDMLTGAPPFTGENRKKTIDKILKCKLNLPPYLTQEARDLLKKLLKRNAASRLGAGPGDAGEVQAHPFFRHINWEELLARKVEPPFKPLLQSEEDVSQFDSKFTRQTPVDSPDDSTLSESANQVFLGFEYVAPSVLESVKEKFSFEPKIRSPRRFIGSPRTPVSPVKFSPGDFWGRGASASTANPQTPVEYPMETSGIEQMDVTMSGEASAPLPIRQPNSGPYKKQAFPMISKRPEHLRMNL

Row | Structure (SMILES) | IC50 (P70S6K (T412E mutant)) [nM] | IC50 (His-AKT (Full Length)) [nM]
1 | Cc1cc(-c2cn(CCN(C)C(C)C)c(C3CCN(c4ncnc(N)c4C#N)CC3)n2)ccc1F [Compound 379, 4-Amino-6-(4-{4-(4-fluoro-3-methyl-phenyl)-1-[2-(isopropyl-methyl-amino)-ethyl]-1H-imidazol-2-yl}-piperidin-1-yl)-pyrimidine-5-carbonitrile] | 0.8 | 2.7
2 | Cc1cc(-c2cn(CCNC(C)C)c(C3CCN(c4ncnc(N)c4C#N)CC3)n2)ccc1F [Compound 380, 4-Amino-6-{4-[4-(4-fluoro-3-methyl-phenyl)-1-(2-isopropylamino-ethyl)-1H-imidazol-2-yl]-piperidin-1-yl}-pyrimidine-5-carbonitrile] | 1.3 | 2.9
3 | N#Cc1c(N)ncnc1N1CCC(c2nc(-c3ccc(F)c(C(F)(F)F)c3)cn2CCNC2CCCC2)CC1 [Compound 381, 4-Amino-6-{4-[1-(2-cyclopentylamino-ethyl)-4-(4-fluoro-3-trifluoromethyl-phenyl)-1H-imidazol-2-yl]-piperidin-1-yl}-pyrimidine-5-carbonitrile] | 1.1 | 0.8
4 | CCC(C)(C)NCCn1cc(-c2ccc(F)c(C(F)(F)F)c2)nc1C1CCN(c2ncnc(N)c2C#N)CC1 [Compound 382, 4-Amino-6-{4-[1-[2-(1,1-dimethyl-propylamino)-ethyl]-4-(4-fluoro-3-trifluoromethyl-phenyl)-1H-imidazol-2-yl]-piperidin-1-yl}-pyrimidine-5-carbonitrile] | 1.7 | 4.3
5 | Cc1cc(-c2cn(CCO)c(C3CCN(c4ncnc(N)c4C#N)CC3)n2)ccc1F [Compound 384, 4-Amino-6-{4-[4-(4-fluoro-3-methyl-phenyl)-1-(2-hydroxy-ethyl)-1H-imidazol-2-yl]-piperidin-1-yl}-pyrimidine-5-carbonitrile] | 1.8 | 440
6 | Cc1cc(-c2cn(CCNC(C)C)c(C3CCN(c4ncnc(N)c4C(N)=O)CC3)n2)ccc1F [Compound 386, 4-Amino-6-{4-[4-(4-fluoro-3-methyl-phenyl)-1-(2-isopropylamino-ethyl)-1H-imidazol-2-yl]-piperidin-1-yl}-pyrimidine-5-carboxylic acid amide] | 2.4 | 15
7 | NC(=O)c1c(N)ncnc1N1CCC(c2nc(-c3ccc(F)c(C(F)(F)F)c3)cn2CCNC2CCCC2)CC1 [Compound 387, 4-Amino-6-{4-[1-(2-cyclopentylamino-ethyl)-4-(4-fluoro-3-trifluoromethyl-phenyl)-1H-imidazol-2-yl]-piperidin-1-yl}-pyrimidine-5-carboxylic acid amide] | 1.4 | 8.4
8 | CCC(C)(C)NCCn1cc(-c2ccc(F)c(C(F)(F)F)c2)nc1C1CCN(c2ncnc(N)c2C(N)=O)CC1 [Compound 388, 4-Amino-6-{4-[1-[2-(1,1-dimethyl-propylamino)-ethyl]-4-(4-fluoro-3-trifluoromethyl-phenyl)-1H-imidazol-2-yl]-piperidin-1-yl}-pyrimidine-5-carboxylic acid amide] | 2 | 13
9 | Cc1cc(-c2cn(CCNCC(C)C)c(C3CCN(c4ncnc(N)c4C#N)CC3)n2)ccc1F [Compound 390, 4-Amino-6-{4-[4-(4-fluoro-3-methyl-phenyl)-1-(2-isobutylamino-ethyl)-1H-imidazol-2-yl]-piperidin-1-yl}-pyrimidine-5-carbonitrile] | 1.9 | 1.4
10 | Cc1cc(-c2cn(CCNC3CCCC3)c(C3CCN(c4ncnc(N)c4C(N)=O)CC3)n2)ccc1F [Compound 391, 4-Amino-6-{4-[1-(2-cyclopentylamino-ethyl)-4-(4-fluoro-3-methyl-phenyl)-1H-imidazol-2-yl]-piperidin-1-yl}-pyrimidine-5-carboxylic acid amide] | 4 | 5.6
11 | CNCCn1cc(-c2ccc(F)c(C)c2)nc1C1CCN(c2ncnc(N)c2C(N)=O)CC1 [Compound 397, 4-Amino-6-{4-[4-(4-fluoro-3-methyl-phenyl)-1-(2-methylamino-ethyl)-1H-imidazol-2-yl]-piperidin-1-yl}-pyrimidine-5-carboxylic acid amide] | 2.5 | 16
12 | CCOc1c(N)ncnc1N1CCC(c2nc(-c3ccc(F)c(C(F)(F)F)c3)cn2CCNC(C)C)CC1 [Compound 398, 5-Ethoxy-6-{4-[4-(4-fluoro-3-trifluoromethyl-phenyl)-1-(2-isopropylamino-ethyl)-1H-imidazol-2-yl]-piperidin-1-yl}-pyrimidin-4-ylamine] | 2.1 | 1.5
13 | Cc1cc(-c2cn(CC3CN(CO)C3)c(C3CCN(c4ncnc(N)c4C(C)C)CC3)n2)ccc1F [Compound 399, {3-[2-[1-(6-Amino-5-isopropyl-pyrimidin-4-yl)-piperidin-4-yl]-4-(4-fluoro-3-methyl-phenyl)-imidazol-1-ylmethyl]-azetidin-1-yl}-methanol] | 2.5 | 56
14 | CCc1c(N)ncnc1N1CCC(c2nc(-c3ccc(F)c(C)c3)cn2CC2CN(C)C2)CC1 [Compound 400, 5-Ethyl-6-{4-[4-(4-fluoro-3-methyl-phenyl)-1-(1-methyl-azetidin-3-ylmethyl)-1H-imidazol-2-yl]-piperidin-1-yl}-pyrimidin-4-ylamine] | 0.06 | 0.3

The remaining compounds from weak to strong by IC50 (P70S6K (T412E mutant)), led by results:

Row | IC50 (P70S6K (T412E mutant)) [nM] | IC50 (His-AKT (Full Length)) [nM] | Structure (SMILES)
15 | 6.2 | 42 | Cc1cc(-c2cn(CCN(C)C(C)C)c(C3CCN(c4ncnc(N)c4C(N)=O)CC3)n2)ccc1F [Compound 385, 4-Amino-6-(4-{4-(4-fluoro-3-methyl-phenyl)-1-[2-(isopropyl-methyl-amino)-ethyl]-1H-imidazol-2-yl}-piperidin-1-yl)-pyrimidine-5-carboxylic acid amide]
16 | 5.5 | 13 | Cc1cc(-c2cn(CCNCC(C)C)c(C3CCN(c4ncnc(N)c4C(N)=O)CC3)n2)ccc1F [Compound 392, 4-Amino-6-{4-[4-(4-fluoro-3-methyl-phenyl)-1-(2-isobutylamino-ethyl)-1H-imidazol-2-yl]-piperidin-1-yl}-pyrimidine-5-carboxylic acid amide]
17 | 3.5 | 340 | CCOc1c(N)ncnc1N1CCC(c2nc(-c3ccc(F)c(C)c3)cn2CCO)CC1 [Compound 396, 2-[2-[1-(6-Amino-5-ethoxy-pyrimidin-4-yl)-piperidin-4-yl]-4-(4-fluoro-3-methyl-phenyl)-imidazol-1-yl]-ethanol]
18 | 3.3 | 8.4 | Cc1cc(-c2cn(CCNCC3CC3)c(C3CCN(c4ncnc(N)c4C(N)=O)CC3)n2)ccc1F [Compound 383, 4-Amino-6-{4-[1-[2-(cyclopropylmethyl-amino)-ethyl]-4-(4-fluoro-3-methyl-phenyl)-1H-imidazol-2-yl]-piperidin-1-yl}-pyrimidine-5-carboxylic acid amide]
19 | 2.8 | 47 | Cc1cc(-c2cn(CCO)c(C3CCN(c4ncnc(N)c4C(N)=O)CC3)n2)ccc1F [Compound 393, 4-Amino-6-{4-[4-(4-fluoro-3-methyl-phenyl)-1-(2-hydroxy-ethyl)-1H-imidazol-2-yl]-piperidin-1-yl}-pyrimidine-5-carboxylic acid amide]
20 | 1.6 | 180 | NC(=O)c1c(N)ncnc1N1CCC(c2nc(-c3ccc(F)c(C(F)(F)F)c3)cn2CCO)CC1 [Compound 395, 4-Amino-6-{4-[4-(4-fluoro-3-trifluoromethyl-phenyl)-1-(2-hydroxy-ethyl)-1H-imidazol-2-yl]-piperidin-1-yl}-pyrimidine-5-carboxylic acid amide]
21 | 0.9 | 0.7 | Cc1cc(-c2cn(CCNC3CCCC3)c(C3CCN(c4ncnc(N)c4C#N)CC3)n2)ccc1F [Compound 389, 4-Amino-6-{4-[1-(2-cyclopentylamino-ethyl)-4-(4-fluoro-3-methyl-phenyl)-1H-imidazol-2-yl]-piperidin-1-yl}-pyrimidine-5-carbonitrile]
22 | 0.9 | 1.7 | CNCCn1cc(-c2ccc(F)c(C)c2)nc1C1CCN(c2ncnc(N)c2C#N)CC1 [Compound 394, 4-Amino-6-{4-[4-(4-fluoro-3-methyl-phenyl)-1-(2-methylamino-ethyl)-1H-imidazol-2-yl]-piperidin-1-yl}-pyrimidine-5-carbonitrile]
